Consider seven compounds from ChEMBL document CHEMBL1153669, “Rs-100235: A high affinity 5-HT4 receptor antagonist” (Bioorg Med Chem Lett, 1995).

The target of data set [1] is 5-hydroxytryptamine receptor 4 (Rattus norvegicus) (UniProt Q62758). The data set can be described thus: Antagonist activity against 5-HT4 receptor mediated relaxation of rat carbachol contracted esophageal muscularis mucosae. The format is functional.
Data set [2] has as its system Sus scrofa. The data set can be described thus: Antagonism of 5-HT-induced tachycardia in anesthetized, vagotomized Yucatan micropigs at 30-3000 ug/kg dose administered intraduodenally. As to conditions: intraduodenal, read-out: ID50 (the source's name). The class given is functional.
The nature of data set [3]: Compound was tested for its half-life period at an intravenous dose of 30 ug/kg. Conditions: pig, in vivo, 0.03 mg/kg. The class given is ADME, organism-based, Sus scrofa.
In data set [4] the test system is Sus scrofa. The data set can be described thus: Antagonism of 5-HT-induced tachycardia in anesthetized, vagotomized Yucatan micropigs at 1-300 ug/kg dose administered intravenously. The class given is functional. As to conditions: iv, read-out: ID50 (the source's name).
The test system of data set [5] is Sus scrofa. The data set can be described thus: Antagonism of 5-HT-induced tachycardia in anesthetized, vagotomized Yucatan micropigs at 3-3000 ug/kg dose administered intraduodenally; no effect. The class given is functional, organism-based.
Data set [6] relates to Sus scrofa. The data set can be described thus: Antagonism of 5-HT-induced tachycardia in anesthetized, vagotomized Yucatan micropigs at 0.1-300 ug/kg dose administered intravenously. The format is functional. As to conditions: iv, read-out: ID50 (the source's name).

Calls of active or inactive are those of the source. Some results are limits rather than exact numbers.

5-hydroxytryptamine receptor 4 (Rattus norvegicus), sequence (Q62758 whole entry): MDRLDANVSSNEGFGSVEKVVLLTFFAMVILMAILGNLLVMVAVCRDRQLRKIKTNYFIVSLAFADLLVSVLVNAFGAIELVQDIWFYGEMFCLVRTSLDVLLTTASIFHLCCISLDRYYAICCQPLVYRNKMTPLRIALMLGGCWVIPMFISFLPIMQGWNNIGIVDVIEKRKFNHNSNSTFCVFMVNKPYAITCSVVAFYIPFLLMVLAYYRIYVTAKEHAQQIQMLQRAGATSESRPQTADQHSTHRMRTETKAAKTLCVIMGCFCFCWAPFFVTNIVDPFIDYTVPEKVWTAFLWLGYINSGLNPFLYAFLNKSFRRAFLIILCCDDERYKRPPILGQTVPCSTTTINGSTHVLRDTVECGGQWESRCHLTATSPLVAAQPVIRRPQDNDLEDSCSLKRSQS

Regarding `COc1cc(COc2cc(N)c(Cl)cc2C(=O)CCC2CCN(CCNS(C)(=O)=O)CC2)cc(OC)c1`, the negative logarithm of the Kb (pKb) in data set [1] came out at 9.1. For the same compound, the results for the ED50 in the data set with Sus scrofa [2] and with Sus scrofa [4] were 245 µg/kg and 4.68 µg/kg, respectively. In data set [3], this compound came in with a half-life of 5.25 h.

In turn, `Cn1cc(C(=O)OCC2CCN(CCNS(C)(=O)=O)CC2)c2ccccc21` displayed a negative-log Kb (pKb) in data set [1] of 9.

Take `CCCCN1CCC(CCC(=O)c2cc(Cl)c(N)c3c2OCCO3)CC1`: the pKb in data set [1] came out at 9.9.

For `Nc1c(Cl)cc(C(=O)CCC2CCN(CCCc3ccccc3)CC2)c2c1OCCO2`, the negative-log Kb (pKb) in data set [1] came out at 9.6.

`CS(=O)(=O)NCCN1CCC(CCC(=O)c2cc(Cl)c(N)c3c2OCCO3)CC1` returned a negative logarithm of the Kb (pKb) in data set [1] of 9.9.

With `COc1ccc(CCCN2CCC(CCC(=O)c3cc(Cl)c(N)c4c3OCCO4)CC2)cc1`, the negative-log Kb (pKb) in data set [1] was determined as 10.6.

Regarding `CCCCN1CCC(COC(=O)c2cc(Cl)c(N)c3c2OCCO3)CC1`, the pKb in data set [1] is 10.3. Further, the half-life in data set [3] is < 2.5 h. Also, the ID50 entry with Sus scrofa [5] was “inactive”. The ED50 with Sus scrofa [6] worked out at 8 µg/kg.

One may read the pKb as the Kb on a negative log10 scale, so that one unit is a factor of ten. The low end stands for a large Kb, the high end for a small Kb. In general, half-life refers to the time needed for the level to fall by half in the phase considered. Lower therefore signals fast loss.
